The source made the active and inactive calls.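 Rule for the calls: active = at least 15% of cells MAC1 differentiation marker positive at top dose, with half-maximal concentration under 10 µM; inactive = the rest.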
test system: not listed separately; test: MAC1 induction in THP1 leukemia cells – cell-based, MAC1 flow cytometry, set 1, SAR follow-up (AID 743179); details: THP1 MAC1+ differentiation, flow cytometry, 4 days; at 10 µM (top of the series)

| SMILES | MAC1+ percent, differentiation |
| --- | --- |
| O=C(CNC(=O)c1ccc(Cl)c(Cl)c1)N[C@@H]1CCCc2ccccc21 | 6% (inactive) |
| CC(C)(C)OC(=O)NCCC(=O)N[C@@H]1CCCc2ccccc21 | 2% (inactive) |
| NCCC(=O)N[C@@H]1CCCc2ccccc21 | 1% (inactive) |
| CC(NC(=O)CCNC(=O)c1ccc(Cl)cc1)c1ccc(F)cc1 (stereo not given) | 6% (inactive) |
| O=C(CNC(=O)c1ccc(Cl)cc1)N[C@@H]1CCCc2ccccc21 | 4% (inactive) |
| O=C(CCCNC(=O)c1ccc(Cl)c(Cl)c1)N[C@@H]1CCCc2ccccc21 | 3% (inactive) |
| O=C(CCNC(=O)c1ccc(F)cc1)N[C@@H]1CCCc2ccccc21 | 46% (inactive) |
| O=C(CCNC(=O)c1ccccc1)N[C@@H]1CCCc2ccccc21 | 2% (inactive) |
| N#Cc1ccc(C(=O)NCCC(=O)N[C@@H]2CCCc3ccccc32)cc1 | 17% (inactive) |
| CC(c1ccccc1)N(C)C(=O)CCNC(=O)c1ccc(Cl)cc1 (stereo not given) | 7% (inactive) |
| CC(=O)NCCC(=O)N[C@@H]1CCCc2ccccc21 | 2% (inactive) |
| CC(C)(C)OC(=O)NCCC(=O)N[C@H]1CCCc2ccccc21 | 2% (inactive) |
| C[C@@H](NC(=O)CCNC(=O)c1ccc(Cl)cc1)c1ccccc1 | 5% (inactive) |
| O=C(CNC(=O)c1ccc(C(F)(F)F)cc1)N[C@@H]1CCCc2ccccc21 | 3% (inactive) |
| CC(NC(=O)C1CCCN(C(=O)c2ccc(Cl)cc2)C1)c1ccccc1 (stereo not given) | 6% (inactive) |
| Cc1ccc(C)c(OCCn2cc(C(=O)O)c3ccccc32)c1 | 2% (inactive) |

| SMILES | MAC1+ percent, differentiation |
| --- | --- |
| Cc1cccc(C(=O)NCCC(=O)NC2CCCc3ccccc32)c1 (stereo not given) | 4% (inactive) |
| COc1ccccc1C(C)NC(=O)CCNC(=O)c1ccc(Cl)cc1 (stereo not given) | -1% (inactive) |
| O=C(CCNC(=O)c1ccc(Cl)c(Cl)c1)N[C@@H]1CCCc2ccccc21 | 109% (inactive) |
| O=C(NC1CCOc2ccccc21)C1CCCN(C(=O)c2ccc(Cl)cc2)C1 (stereo not given) | 5% (inactive) |
| O=C(CCCNC(=O)c1ccc(C(F)(F)F)cc1)N[C@@H]1CCCc2ccccc21 | 2% (inactive) |
| O=C(CCCNC(=O)c1ccc(OC(F)(F)F)cc1)N[C@@H]1CCCc2ccccc21 | 3% (inactive) |
| O=C(CCCNC(=O)c1ccc(Cl)cc1)N[C@@H]1CCCc2ccccc21 | 5% (inactive) |
| O=C(CNC(=O)c1ccc(OC(F)(F)F)cc1)N[C@@H]1CCCc2ccccc21 | 3% (inactive) |
| O=C(Cc1ccc(Cl)cc1)NCCC(=O)N[C@@H]1CCCc2ccccc21 | 13% (inactive) |
| O=C(NC1CCc2ccccc21)C1CCCN(C(=O)c2ccc(Cl)cc2)C1 (stereo not given) | 4% (inactive) |
| O=C(CCNC(=O)c1ccc(Cl)cc1)N[C@H]1CCCc2ccccc21 | 7% (inactive) |
| O=C(O)c1ccccc1OCc1ccccc1Br | 4% (inactive) |
| O=C(CCNC(=O)c1ccc(Cl)cc1)NC1CCCCC1 | 3% (inactive) |
| CC(NC(=O)CCNC(=O)c1ccc(Cl)cc1)c1ccc2c(c1)OCO2 (stereo not given) | 5% (inactive) |
| O=C(CCNC(=O)c1ccc(Cl)cc1)N[C@@H]1CCc2ccccc21 | 21% (inactive) |
| Cc1ccc(C(=O)NCCC(=O)N[C@@H]2CCCc3ccccc32)cc1 | 97% (inactive) |

test system: THP1 MAC1+ differentiation, flow cytometry, 4 days; test: as above; details: not given

| EC50 [µM] | SMILES |
| --- | --- |
| 5.49 | O=C(O)c1cccnc1Nc1ccc(Cl)cc1 |
| 5.16 | COc1ccc(C(=O)NCCC(=O)N[C@@H]2CCCc3ccccc32)cc1 |
| 2.07 | O=C(CCNC(=O)c1ccc(OC(F)(F)F)cc1)N[C@@H]1CCCc2ccccc21 |
| 3.09 | O=C(CCNC(=O)c1ccc(Cl)cc1)N[C@@H]1CCCc2ccccc21 |
| 2.49 | O=C(CCNC(=O)c1ccc(C(F)(F)F)cc1)N[C@@H]1CCCc2ccccc21 |
| 4.28 | O=C(CCNC(=O)c1ccc2c(c1)OC(F)(F)O2)N[C@@H]1CCCc2ccccc21 |
| 9.14 | O=C(CCNC(=O)c1cccc(Cl)c1)N[C@@H]1CCCc2ccccc21 |
| 3.79 | O=C(CCNC(=O)c1ccc(Cl)cc1)NC1CCCc2ccccc21 (stereo not given) |

Reference: PubChem BioAssay AID743179 (NMMLSC, 2013)
